Laboratory results taken from article PMC11653243, “Enhancing Phototoxicity in BODIPY‐Perylene Charge Transfer Dyads by Combined Iodination and Mesylation” (Chemistry (Weinheim an Der Bergstrasse, Germany), 2024).
Values joined by “and” are separate entries in the source; they are usually repeats but may differ in a detail not shown here. Identical values can stand only once.

Columns and labels:
CHO cells = test: Phototoxicity, 470 nm LED, alamar blue assay; assay type: cell-based, Chinese Hamster; settings: 17 J/cm^2, 470 nm LED
Experimental: The phototoxicity of the BODIPY's were assessed to compare the light induced toxicity of the iodinated compounds with their non‐iodinated counterparts. CHO and MCF‐7 cells were treated with B2P, B2PI, MB2P, and MB2PI in a concentration range from 0.10–1 μM for 17 h, the wells were decanted and filled with 100 μL phenol red free media prior to irradiation with a 470 nm LED (17 J/cm^2). Cell viability was determined using the alamar blue cell viability assay and % viability was calculated relative to untreated control wells.
(§1) Dark‐ and photo‐toxicity studies were performed by seeding CHO and MCF‐7 cells in clear 96‐well plates (Nunc) and treating with varying concentrations of B2P, MB2P, B2PI and MB2PI. Phototoxicity experiments were carried out using a 470 nm LED. For hypoxic phototoxicity studies, hypoxia was mimicked by adding CoCl2 to the cells prior to irradiation. Cell viability was determined using the alamar blue assay and absorbance measured with a BMG LABTECH CLARIOstar plate reader. […]
(§2) For 24 h dark toxicity studies, 50, 10, 5 and 1 µM stock concentrations of B2P, B2PI, MB2P and MB2PI were prepared in media to a final DMSO concentration of ≤1%. 100 µL of each concentration was added to the wells in triplicate and the plates incubated for 24 h in the dark at 37°C. Cell viability of all plate-based studies was assessed using the alamar blue assay. A 10% Resazurin-media solution (alamarBlue, Invitrogen) was added to the wells and incubated for 5 h in the absence of light. Absorbance was measured using a BMG LABTECH CLARIOstar plate reader at 570 nm and 600 nm (corrected for background subtraction). Cell viability is presented as a percentage (%) compared to untreated control wells. Plates were performed in triplicate.
Phototoxicity and dark control plates were performed by incubating CHO or MCF-7 cells with B2P, B2PI, MB2P and MB2PI for 17 h to allow uptake, emptying the wells, replacing with phenol red free media, and irradiating at a total dose of 17 ± 1.64 J/cm2 (2 h at 2.37 ± 0.23 mW/cm2) using a 470 nm LED (TeleOpto LEDA-X LED driver and array). Control plates were incubated in the dark during the irradiation period (2 h). After irradiation, the cells were incubated in the dark overnight to allow for cell recovery. Irradiation conditions were tested on untreated cells to confirm cells remained viable at this dose before any experiments were performed and each phototoxicity plate included untreated test wells for cell viability comparison. Viability was determined using the alamar blue assay as per the cytotoxicity

MCF‐7 cells = test: Dark toxicity, 24 h, alamar blue assay; assay type: cell-based; settings: Homo sapiens, MCF7, light or radiation study, without irradiation, 24 h in the dark at 37 °C
Experimental: Typical of many BODIPY derivatives, the BODIPY's presented in this work are insoluble in aqueous media, including PBS, and thus the main stock solutions (2–3 mM) were prepared in 100 % DMSO and diluted in media immediately before treating the cells. The maximum concentration for dark toxicity was set at 50 μM to keep the concentration of DMSO ≤1 % (v/v) to maintain cell health. As a result, it was not possible to determine an exact dark IC50 value as concentrations above 50 μM demanded DMSO concentrations that would affect the viability of the cells. Dietzek‐Ivanšić et al previously reported on the effect of DMSO on MCF‐7 cell viability, where cell viability remained high (95 %) in cells treated with 1 % DMSO in cell culture media for 24 h, whereas only 40 % of cells remained viable after treatment with 3.8 % DMSO. Working stocks in cell culture media remained stable within the incubation times used for cellular studies i. e. up to 24 h.[25]
as §1
as §2, with “triplicate. […]” for “triplicate.”

[1] = Photophysical properties (absorption, emission, quantum yield, lifetime) in solvents; assay type: physicochemical; settings: for Φf: absolute quantum yield, integrating sphere; for τave: intensity weighted average lifetime; for kr: kr=ΦF/τave; for emission intensity from water relative to emission intensity from toluene: matched absorption, water with 10 % DMSO
From the text: The absorption and emission spectra of MB2P and MB2PI are shown in Figure 3, in a range of solvents across polarities. […] The absorption maxima is largely unaffected by solvent, similar to B2P/B2PI. The extinction coefficient is also modestly affected for MB2P but does vary with solvent for MB2PI, although the change is not correlated with solvent polarity. All compounds also show characteristic perylene absorption features between 400 and 430 nm. Also consistent with this previous study, the emission spectra are strongly solvent dependent. Intensely emissive from non‐polar media, MB2P and MB2PI are minimally emissive in polar (ethanol and DMSO) and aqueous media, (with 10 % DMSO for solubilisation). For example, under matched absorption conditions used to generate Figure 3, the emission intensity from water was 0.13 % (MB2P) and 1.6 % (MB2PI) of the emission intensity from toluene (see Figure S20).
Figure 3 Right, Absorption spectra of (A) MB2P and (B) MB2PI in different solvents at 10 μM, and, left, their respective emission. Excitation wavelength 532 nm, data recorded with 2.5–2.5 nm slit widths.

Compound	Photo Index (PI), ratio of dark IC50 to light IC50 (CHO cells)	IC50 (MCF‐7 cells) [µM]	Mol. Bright ([1]; Dioxane)	Stokes Shift ([1]; Dioxane) [cm⁻¹]	knr ([1]; Dioxane)	λem ([1]; Dioxane) [nm]	τ1 ([1]; Dioxane) [ns]	ϵ ([1]; Dioxane) [M⁻¹ cm⁻¹]	Φf ([1]; Dioxane)	τave ([1]; Dioxane) [ns]	kr ([1]; Dioxane)	Mol. Bright ([1]; Toluene)	Stokes Shift ([1]; Toluene) [cm⁻¹]	knr ([1]; Toluene)	λabs ([1]; Toluene) [nm]	λem ([1]; Toluene) [nm]	τ1 ([1]; Toluene) [ns]	ϵ ([1]; Toluene) [M⁻¹ cm⁻¹]	Φf ([1]; Toluene)	τave ([1]; Toluene) [ns]	further results
CC1=C(I)C(C)=[N+]2C1=C(c1ccccc1)c1c(C)c(-c3ccc4c5cccc6cccc(c7cccc3c74)c65)c(C)n1[B-]2(F)F [B2PI]	> 87	> 50	–	–	–	–	–	–	–	–	–	–	–	–	–	–	–	–	–	–	–
CC1=CC(C)=[N+]2C1=C(c1ccccc1)c1c(C)c(-c3ccc4c5cccc6cccc(c7cccc3c74)c65)c(C)n1[B-]2(F)F [B2P]	> 76	> 50	–	–	–	–	–	–	–	–	–	–	–	–	–	–	–	–	–	–	–
CC1=C(c2ccc3c4cccc5cccc(c6cccc2c63)c54)C(C)=[N+]2C1=C(c1c(C)cc(C)cc1C)c1c(C)c(I)c(C)n1[B-]2(F)F [MB2PI]	> 132	> 50	4374	3049	85 10^7 s^−1	635	4.0±0.1	72900	0.06	1.1±0.0	5.73 10^7 s^−1	6534	2854	114 10^7 s^−1	534	630	1.6±0.1	72600	0.09	0.8±0.0	Amp of τ1 ([1]; Dioxane): 2.5%; Amp of τ2 ([1]; Dioxane): 97.5%; λabs ([1]; Dioxane): ~532 nm; τ2 ([1]; Dioxane): 0.7 ns and 0.7±0.01 ns; Amp of τ1 ([1]; Toluene): 5.6%; Amp of τ2 ([1]; Toluene): 94.4%; τ2 ([1]; Toluene): 0.7 ns and 0.7±0.01 ns; kr ([1]; Toluene): 11.2 10^7 s^−1; emission intensity from water relative to emission intensity from toluene [1]: 1.6%
CC1=C(c2ccc3c4cccc5cccc(c6cccc2c63)c54)C(C)=[N+]2C1=C(c1c(C)cc(C)cc1C)c1c(C)cc(C)n1[B-]2(F)F [MB2P]	> 64	> 50	20516	3131	25 10^7 s^−1	614	3.1±0.1	89200	0.23	3.1±0.1	7.4 10^7 s^−1	32148	3002	23 10^7 s^−1	517	612	2.8±0.0	89300	0.36	2.8±0.0	kr ([1]; Toluene): 12.9 10^7 s^−1; emission intensity from water relative to emission intensity from toluene [1]: 0.13%
